Assays:
[1] = Cytotoxicity determination in HepG2.2.15 cells (CCK-8 cell viability); type: cell-based; conditions: human, 6 days treatment, CCK-8 assay, highest concentration 100 uM
Experimental: (§1) HepG2.2.15 (the HepG2.2.15 cell line can be produced by transfection of the HepG2 cell line as described in Sells, Chen, and Acs 1987 (Proc. Natl. Acad. Sci. USA 84: 1005-1009), and the HepG2 cell line is available from ATCC® under number HIB-8065™)
(§2) HepG2.2.15 cells were plated into 96-well plate in 2% FBS culture medium at the density of 40,000 cells/well and 5,000 cells/well for HBV inhibitory activity and cytotoxicity determination, respectively. After incubation at 37° C., 5% CO2 overnight, cells were treated with medium containing compounds for 6 days with medium and compounds refreshed after 3 days of treatment. Each compound was tested in a 1:3 serial dilutions at 8 different concentrations in triplicate. The highest concentration of the compounds was 10 uM or 1 uM for anti-HBV activity assay and 100 uM for cytotoxicity determination.
Cell viability was determined by CCK-8 assay. After 6 days of compounds treatment, 20 μl CCK-8 reagents were added to each well of cytotoxicity assay plates. Cell plates were incubated at 37° C., 5% CO2 for 2.5 h. The absorbance at 450 nm wavelength and the absorbance at 630 nm wavelength as reference was measured.
(§3) 2) DATA Analysis EC50 and CC50 values are calculated by the GRAPTIPAD PRISM software.

HBV = assay: Anti-HBV activity in HepG2.2.15 cells (HBV DNA in culture medium by qPCR); type: cell-based; conditions: Hepatitis B virus, HepG2.2.15, 144 h, HepG2.2.15 cells, 6 days treatment, HBV DNA in culture medium quantified by real-time PCR; read-out: EC50
Experimental: Example 2: Anti-Viral Assay in HepG2.2.15 Cells
as §1, §2
The change of HBV DNA level induced by the compounds was assessed by quantitative real-time polymerase chain reaction (qPCR). Briefly, the HBV DNA in the culture medium was extracted using QIAamp 96 DNA Blood Kit according to the manual and then quantified by real-time PCR assay using the primers and probe in the table 2 below.
as §3

CCOC(=O)C1=C(CN2CC(F)(F)[C@H]3[C@@H]2CCN3CC(C)(C)C(=O)O)NC(c2nccs2)=N[C@H]1c1cccc(F)c1C (relative stereo) [Compound 1A, 3-(4-(((S)-5-(ethoxycarbonyl)-6-(3-fluoro-2-methylphenyl)-2-(thiazol-2-yl)-3,6-dihydropyrimidin-4-yl)methyl)-6,6-difluorohexahydropyrrolo[3,2-b]pyrrol-1(2H)-yl)-2,2-dimethylpropanoic acid]
CC50 at 6 days [1]: 15 µM
EC50 (HBV): 0.0013 µM

CCOC(=O)C1=C(CN2CC[C@]3(F)C(=O)N(CC(C)(C)C(=O)O)C[C@H]23)NC(c2nccs2)=N[C@H]1c1cccc(F)c1C (relative stereo) [Compound 3B, 3-(1-(((S)-5-(ethoxycarbonyl)-6-(3-fluoro-2-methylphenyl)-2-(thiazol-2-yl)-3,6-dihydropyrimidin-4-yl)methyl)-3a-fluoro-4-oxohexahydropyrrolo[3,4-b]pyrrol-5(1H)-yl)-2,2-dimethylpropanoic acid]
CC50 at 6 days [1]: 51.8 µM
EC50 (HBV): 0.0387 µM

CCOC(=O)C1=C(CN2CC[C@H]3C(=O)N(CC(C)(C)C(=O)O)C(=O)[C@H]32)NC(c2nccs2)=N[C@H]1c1cccc(F)c1C (relative stereo) [Compound 4A, 3-(1-(((S)-5-(ethoxycarbonyl)-6-(3-fluoro-2-methylphenyl)-2-(thiazol-2-yl)-3,6-dihydropyrimidin-4-yl)methyl)-4,6-dioxohexahydropyrrolo[3,4-b]pyrrol-5(1H)-yl)-2,2-dimethylpropanoic acid]
CC50 at 6 days [1]: 32.6 µM
EC50 (HBV): 0.0063 µM

CCOC(=O)C1=C(CN2CC(F)(F)[C@@H]3C(=O)N(CC(C)(C)C(=O)O)C[C@@H]32)NC(c2nccs2)=N[C@H]1c1cccc(F)c1C (relative stereo) [Compound 5A, 3-(1-(((S)-5-(ethoxycarbonyl)-6-(3-fluoro-2-methylphenyl)-2-(thiazol-2-yl)-3,6-dihydropyrimidin-4-yl)methyl)-3,3-difluoro-4-oxohexahydropyrrolo[3,4-b]pyrrol-5(1H)-yl)-2,2-dimethylpropanoic acid]
CC50 at 6 days [1]: 70.4 µM
EC50 (HBV): 0.0082 µM

CCOC(=O)C1=C(CN2CC(F)(F)[C@H]3[C@@H]2CCN3CC2(C(=O)O)CC2)NC(c2nccs2)=N[C@H]1c1cccc(F)c1C (relative stereo) [Compound 38A, 1-((4-(((S)-5-(ethoxycarbonyl)-6-(3-fluoro-2-methylphenyl)-2-(thiazol-2-yl)-3,6-dihydropyrimidin-4-yl)methyl)-6,6-difluorohexahydropyrrolo[3,2-b]pyrrol-1(2H)-yl)methyl)cyclopropane-1-carboxylic acid]
CC50 at 6 days [1]: 20 µM
EC50 (HBV): 0.0015 µM

CCOC(=O)C1=C(CN2CC(F)(F)[C@H]3[C@@H]2CCN3C2CC(C(=O)O)C2)NC(c2nccs2)=N[C@H]1c1cccc(F)c1C (relative stereo) [Compound 39A, 3-(4-(((S)-5-(ethoxycarbonyl)-6-(3-fluoro-2-methylphenyl)-2-(thiazol-2-yl)-3,6-dihydropyrimidin-4-yl)methyl)-6,6-difluorohexahydropyrrolo[3,2-b]pyrrol-1(2H)-yl)cyclobutane-1-carboxylic acid]
CC50 at 6 days [1]: 35 µM
EC50 (HBV): 0.0024 µM

CCOC(=O)C1=C(CN2CC(F)(F)[C@H]3[C@@H]2CCN3CC2(CC(=O)O)CC2)NC(c2nccs2)=N[C@H]1c1cccc(F)c1C (relative stereo) [Compound 49, 2-(1-((4-(((S)-5-(ethoxycarbonyl)-6-(3-fluoro-2-methylphenyl)-2-(thiazol-2-yl)-3,6-dihydropyrimidin-4-yl)methyl)-6,6-difluorohexahydropyrrolo[3,2-b]pyrrol-1(2H)-yl)methyl)cyclopropyl)-acetic acid]
CC50 at 6 days [1]: 25.5 µM
EC50 (HBV): 0.0326 µM

CCOC(=O)C1=C(CN2CC(F)(F)[C@@H]3[C@H]2CN(C)N3CCC(C)(C)C(=O)O)NC(c2nccs2)=N[C@H]1c1cccc(F)c1C (relative stereo) [Compound 68A, 4-(4-(((S)-5-(ethoxycarbonyl)-6-(3-fluoro-2-methylphenyl)-2-(thiazol-2-yl)-3,6-dihydropyrimidin-4-yl)methyl)-6,6-difluoro-2-methylhexahydropyrrolo[3,2-c]pyrazol-1(2H)-yl)-2,2-dimethylbutanoic acid]
CC50 at 6 days [1]: 22.2 µM
EC50 (HBV): 0.0074 µM

CCOC(=O)C1=C(CN2CC(F)(F)[C@@H]3[C@H]2CON3CCC(C)(C)C(=O)O)NC(c2nccs2)=N[C@H]1c1cccc(F)c1C (relative stereo) [Compound 69A, 4-(4-(((S)-5-(ethoxycarbonyl)-6-(3-fluoro-2-methylphenyl)-2-(thiazol-2-yl)-3,6-dihydropyrimidin-4-yl)methyl)-6,6-difluorohexahydro-1H-pyrrolo[3,2-c]isoxazol-1-yl)-2,2-dimethylbutanoic acid]
CC50 at 6 days [1]: 37 µM
EC50 (HBV): 0.0007 µM

CCOC(=O)C1=C(CN2CC(F)(F)[C@H]3[C@@H]2CN(CC(C)(C)C(=O)O)N3C)NC(c2nccs2)=N[C@H]1c1cccc(F)c1C (relative stereo) [Compound 87, 3-((cis)-4-(((S)-5-(ethoxycarbonyl)-6-(3-fluoro-2-methylphenyl)-2-(thiazol-2-yl)-3,6-dihydropyrimidin-4-yl)methyl)-6,6-difluoro-1-methylhexahydropyrrolo[3,2-c]pyrazol-2(1H)-yl)-2,2-dimethylpropanoic acid]
CC50 at 6 days [1]: > 50 µM
EC50 (HBV): 0.014 µM

CCOC(=O)C1=C(CN2CC(F)(F)[C@H]3[C@@H]2CCN3CCC(C)(C)C(=O)O)NC(c2ncoc2C)=N[C@@H]1c1cccc(F)c1C (relative stereo) [Compound 107, 4-(4-((5-(ethoxycarbonyl)-6-(3-fluoro-2-methylphenyl)-2-(5-methyloxazol-4-yl)-3,6-dihydropyrimidin-4-yl)methyl)-6,6-difluorohexahydropyrrolo[3,2-b]pyrrol-1(2H)-yl)-2,2-dimethylbutanoic acid]
CC50 at 6 days [1]: 42.5 µM
EC50 (HBV): 0.0113 µM

CCOC(=O)C1=C(CN2CC(F)(F)[C@H]3[C@@H]2CCN3CC[C@H]2C[C@@H]2C(=O)O)NC(c2nccs2)=N[C@H]1c1cccc(F)c1C (relative stereo) [Compound 110, (trans)-2-(2-((cis)-4-(((S)-5-(ethoxycarbonyl)-6-(3-fluoro-2-methylphenyl)-2-(thiazol-2-yl)-3,6-dihydropyrimidin-4-yl)methyl)-6,6-difluorohexahydropyrrolo[3,2-b]pyrrol-1(2H)-yl)ethyl)cyclopropane-1-carboxylic acid]
CC50 at 6 days [1]: 23.5 µM
EC50 (HBV): 0.0006 µM

CCOC(=O)C1=C(CN2CC(F)(F)[C@H]3[C@@H]2CCN3CCC(C)(C)C(=O)O)NC(c2nccs2)=N[C@@H]1c1ccc(F)nc1C (relative stereo) [Compound 121, 4-((cis)-4-(((R)-5-(ethoxycarbonyl)-6-(6-fluoro-2-methylpyridin-3-yl)-2-(thiazol-2-yl)-3,6-dihydropyrimidin-4-yl)methyl)-6,6-difluorohexahydropyrrolo[3,2-b]pyrrol-1(2H)-yl)-2,2-dimethylbutanoic acid]
CC50 at 6 days [1]: > 100 µM
EC50 (HBV): 0.0087 µM

CCOC(=O)C1=C(CN2CC(F)(F)[C@@H]3[C@H]2CCN3CC(=O)O)NC(c2nccs2)=N[C@H]1c1cccc(F)c1C (single isomer, unassigned) [Compound 6A]
CC50 at 6 days [1]: 30.4 µM
EC50 (HBV): 0.0036 µM

CCOC(=O)C1=C(CN2CC(F)(F)[C@H]3[C@@H]2CCN3CC(=O)O)NC(c2nccs2)=N[C@H]1c1cccc(F)c1C (single isomer, unassigned) [Compound 6B]
CC50 at 6 days [1]: 34.7 µM
EC50 (HBV): 0.382 µM

CCOC(=O)C1=C(CN2CC(F)(F)[C@H]3[C@@H]2CCN3CC(=O)NS(C)(=O)=O)NC(c2nccs2)=N[C@H]1c1cccc(F)c1C (single isomer, unassigned) [Compound 8A]
CC50 at 6 days [1]: 36.3 µM
EC50 (HBV): 0.0069 µM

CCOC(=O)C1=C(CN2CC(F)(F)[C@@H]3CN(C(=O)C(C)(C)C(=O)O)C[C@@H]32)NC(c2nccs2)=N[C@H]1c1cccc(F)c1C (single isomer, unassigned) [Compound 9A]
CC50 at 6 days [1]: 57.8 µM
EC50 (HBV): 0.0111 µM

CCOC(=O)C1=C(CN2CC(F)(F)[C@@H]3CN(C(=O)C4(C(=O)O)CC4)C[C@@H]32)NC(c2nccs2)=N[C@H]1c1cccc(F)c1C (single isomer, unassigned) [Compound 10]
CC50 at 6 days [1]: 69.6 µM
EC50 (HBV): 0.0805 µM

CCOC(=O)C1=C(CN2C[C@H](F)[C@H]3[C@@H]2CCN3CC(C)(C)C(=O)O)NC(c2nccs2)=N[C@H]1c1cccc(F)c1C (single isomer, unassigned) [Compound 11B]
CC50 at 6 days [1]: 30 µM
EC50 (HBV): 0.0314 µM

CCOC(=O)C1=C(CN2CC(F)(F)[C@@H]3CN(CC(C)(C)C(=O)O)C[C@@H]32)NC(c2nccs2)=N[C@H]1c1cccc(F)c1C (single isomer, unassigned) [Compound 12B]
CC50 at 6 days [1]: 86.1 µM
EC50 (HBV): 0.0082 µM

CCOC(=O)C1=C(CN2CC(F)(F)[C@@H]3CN(CC(C)(C)C(=O)O)C(=O)[C@@H]32)NC(c2nccs2)=N[C@H]1c1cccc(F)c1C (single isomer, unassigned) [Compound 13B]
CC50 at 6 days [1]: 38.6 µM
EC50 (HBV): 0.0035 µM
